Experimental data as given in US20250221988A1 (Cullgen (Shanghai), Inc., priority 2022, published 2025).
Read-outs that look alike come from different tables or passages of the source.

Columns and labels:
MV4;11 cells = experiment: Cell viability assay (CellTiter-Glo) in MV4;11 cells; format: cell-based; details: read-out: MV4
How it was run: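 5000 cells/well in RPMI 1640 or DMEM with 10% FBS, treated with 8- or 12-point 3-fold compound dilutions, with or without gilteritinib (10 nM for MV4;11, 20 nM for MOLM-13). Viability by CellTiter-Glo after three days; IC50 by nonlinear least-squares regression.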

MOLM-13 cells = experiment: Cell viability assay (CellTiter-Glo) in MOLM-13 cells; format: cell-based
[1] = Homo sapiens, MV4-11, 72 h, MV4;11 cells, compound alone, three days, 11 IC50
[2] = MV4;11 cells, with 10 nM gilteritinib, three days, 11 IC50 (nM) + 10 nM Gil
[3] = Homo sapiens, 72 h, MOLM-13 cells, compound alone, three days, read-out: MOLM-13 IC50
[4] = MOLM-13 cells, with gilteritinib, three days, read-out: MOLM-13 IC50 (nM) + 10 nM Gil

## Cc1cnc2c(c1)c(C1CC1)nn2[C@H]1C[C@H](CNc2ccc3c(c2)C(=O)N(C2CCC(=O)NC2=O)C3=O)C1 (stereo partly drawn) [GS-673, 5-(((Trans-3-(3-cyclopropyl-5-methyl-1H-pyrazolo[3,4-b]pyridin-1-yl)cyclobutyl)methyl)amino)-2-(2,6-dioxopiperidin-3-yl)isoindoline-1,3-dione]
MV4;11 cells; [1]
  IC50: > 1000 nM
MV4;11 cells; [2]
  IC50: 100 to 1000 nM
MOLM-13 cells; [3]
  IC50: > 1000 nM
MOLM-13 cells; [4]
  IC50: 100 to 1000 nM

## Cn1nccc1-c1cn([C@H]2C[C@H](CNc3ccc4c(c3)C(=O)N(C3CCC(=O)NC3=O)C4=O)C2)nc1C1CC1 (stereo partly drawn) [GS-690, 5-(((Trans-3-(3′-cyclopropyl-2-methyl-1′H,2H-[3,4′-bipyrazol]-1′-yl)cyclobutyl)methyl)amino)-2-(2,6-dioxopiperidin-3-yl)isoindoline-1,3-dione]
MV4;11 cells; [1]
  IC50: > 1000 nM
MOLM-13 cells; [3]
  IC50: > 1000 nM

## O=C1CCC(N2C(=O)c3ccc(NCC4CC(n5cc(-c6cnc7cc(C8CNC8)ccc7n6)c(C6CC6)n5)C4)cc3C2=O)C(=O)N1 (stereo not shown) [GS-746]
MV4;11 cells; [1]
  IC50: 100 to 1000 nM
MV4;11 cells; [2]
  IC50: 10 to 100 nM
MOLM-13 cells; [3]
  IC50: > 1000 nM
MOLM-13 cells; [4]
  IC50: 10 to 100 nM

## CC(C)n1ccc2ccc(-c3cn([C@H]4C[C@H](CNc5ccc6c(c5)C(=O)N(C5CCC(=O)NC5=O)C6=O)C4)nc3C3CC3)nc21 (stereo partly drawn) [GS-737, 5-(((Trans-3-(3-cyclopropyl-4-(1-isopropyl-1H-pyrrolo[2,3-b]pyridin-6-yl)-1H-pyrazol-1-yl)cyclobutyl)methyl)amino)-2-(2,6-dioxopiperidin-3-yl)isoindoline-1,3-dione]
MV4;11 cells; Homo sapiens, MV4-11, 72 h, 11 IC50 (nM)
  IC50: 10 to 100 nM
MV4;11 cells; 11 IC50 (nM) + 10 nM Gil, MV4;11 cells, with 10 nM gilteritinib, three days
  IC50: 10 to 100 nM
MOLM-13 cells; Homo sapiens, MOLM-13, 72 h, read-out: MOLM-13 IC50 (nM)
  IC50: 100 to 1000 nM
MOLM-13 cells; read-out: MOLM-13 IC50 (nM) + 10 nM Gil, MOLM-13 cells, with gilteritinib, three days
  IC50: 10 to 100 nM

## O=C1CCC(N2C(=O)c3ccc(NC[C@H]4C[C@H](n5ncc6ccccc65)C4)cc3C2=O)C(=O)N1 (stereo partly drawn) [GS-728, 5-(((Trans-3-(1H-indazol-1-yl)cyclobutyl)methyl)amino)-2-(2,6-dioxopiperidin-3-yl)isoindoline-1,3-dione]
MV4;11 cells; [1]
  IC50: > 1000 nM
MOLM-13 cells; [3]
  IC50: > 1000 nM
MOLM-13 cells; [4]
  IC50: 10 to 100 nM

## Cc1nc(-c2cn([C@H]3C[C@H](CNc4ccc5c(c4)C(=O)N(C4CCC(=O)NC4=O)C5=O)C3)nc2C2CC2)cc2c1cnn2C (stereo partly drawn) [GS-747, 5-(((Trans-3-(3-cyclopropyl-4-(1,4-dimethyl-1H-pyrazolo[4,3-c]pyridin-6-yl)-1H-pyrazol-1-yl)cyclobutyl)methyl)amino)-2-(2,6-dioxopiperidin-3-yl)isoindoline-1,3-dione]
MV4;11 cells; [1]
  IC50: 10 to 100 nM
MV4;11 cells; [2]
  IC50: < 10 nM
MOLM-13 cells; [3]
  IC50: 10 to 100 nM
MOLM-13 cells; [4]
  IC50: < 10 nM

## Cn1ncc2cnc(-c3cn([C@H]4C[C@H](CCc5ccc6c(c5)C(=O)N(C5CCC(=O)NC5=O)C6=O)C4)nc3C3CC3)cc21 (stereo partly drawn) [GS-767, 5-(2-(Trans-3-(3-cyclopropyl-4-(1-methyl-1H-pyrazolo[4,3-c]pyridin-6-yl)-1H-pyrazol-1-yl)cyclobutyl)ethyl)-2-(2,6-dioxopiperidin-3-yl)isoindoline-1,3-dione]
MV4;11 cells; [1]
  IC50: 100 to 1000 nM
MV4;11 cells; [2]
  IC50: 10 to 100 nM
MOLM-13 cells; [3]
  IC50: 100 to 1000 nM
MOLM-13 cells; [4]
  IC50: 10 to 100 nM

## O=C1CCC(N2C(=O)c3ccc(NC[C@H]4C[C@H](n5cc(-c6cc7nn(C8CC(O)C8)cc7cn6)c(C6CC6)n5)C4)cc3C2=O)C(=O)N1 (stereo partly drawn) [GS-750, 5-(((Trans-3-(3-cyclopropyl-4-(2-(3-hydroxycyclobutyl)-2H-pyrazolo[4,3-c]pyridin-6-yl)-1H-pyrazol-1-yl)cyclobutyl)methyl)amino)-2-(2,6-dioxopiperidin-3-yl)isoindoline-1,3-dione]
MV4;11 cells; [1]
  IC50: < 10 nM
MV4;11 cells; [2]
  IC50: < 10 nM
MOLM-13 cells; [3]
  IC50: < 10 nM
MOLM-13 cells; [4]
  IC50: < 10 nM
MOLM-13 cells; MOLM-13 cells, with or without 20 nM gilteritinib, 3 days
  sensitization of AML cells to GSPT1 degraders by FLT3 inhibition: FLT3 inhibition sensitizes AML cells

## O=C1CCC(N2C(=O)c3ccc(NC[C@H]4C[C@H](n5cc(-c6cc7c(cn6)cnn7C6CNC6)c(C6CC6)n5)C4)cc3C2=O)C(=O)N1 (stereo partly drawn) [GS-675, 5-(((Trans-3-(4-(1-(azetidin-3-yl)-1H-pyrazolo[4,3-c]pyridin-6-yl)-3-cyclopropyl-1H-pyrazol-1-yl)cyclobutyl)methyl)amino)-2-(2,6-dioxopiperidin-3-yl)isoindoline-1,3-dione]
MV4;11 cells; [1]
  IC50: > 1000 nM
MV4;11 cells; [2]
  IC50: 100 to 1000 nM
MOLM-13 cells; [3]
  IC50: > 1000 nM
MOLM-13 cells; [4]
  IC50: 100 to 1000 nM
